The structures appear in SMILES notation.

The experiment deals with T1, chimeric receptor having the extra-cellular domain of EGF-R and the intra-cellular domain of Her2 (Homo sapiens, UniProt P04626).
T1 construct: fused on or other part: the same chimera
T1 sequence (P04626 676-1255 limits assumed, change not shown): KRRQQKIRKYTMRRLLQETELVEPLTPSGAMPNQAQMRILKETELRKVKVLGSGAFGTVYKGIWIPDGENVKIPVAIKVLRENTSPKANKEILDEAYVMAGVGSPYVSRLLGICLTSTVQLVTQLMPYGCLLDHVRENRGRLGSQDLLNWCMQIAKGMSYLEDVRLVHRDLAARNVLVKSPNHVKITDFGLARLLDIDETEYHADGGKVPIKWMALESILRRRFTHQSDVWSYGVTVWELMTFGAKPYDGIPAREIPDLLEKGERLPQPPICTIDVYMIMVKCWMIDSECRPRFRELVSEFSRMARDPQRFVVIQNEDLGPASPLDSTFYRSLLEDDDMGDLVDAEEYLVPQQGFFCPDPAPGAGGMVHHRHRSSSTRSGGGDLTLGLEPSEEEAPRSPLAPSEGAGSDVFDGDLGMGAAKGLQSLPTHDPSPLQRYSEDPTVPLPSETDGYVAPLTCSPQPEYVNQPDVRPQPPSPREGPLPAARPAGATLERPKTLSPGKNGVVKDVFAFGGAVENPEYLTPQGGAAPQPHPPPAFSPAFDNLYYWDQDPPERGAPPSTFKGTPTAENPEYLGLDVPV
As to the kind of experiment: EGF-induced Her2-driven BrdU incorporation. Type of experiment: cell-based. To be noted: read-out: BrdU HER 2 driven IC50. Here is the method: The cellular/catalytic assays described herein are performed in an ELISA format. The general procedure is as follows: a compound is introduced to cells expressing the test kinase, either naturally or recombinantly, for a selected period of time after which, if the test kinase is a receptor, a ligand known to activate the receptor is added. The cells are lysed and the lysate is transferred to the wells of an ELISA plate previously coated with a specific antibody recognizing the substrate of the enzymatic phosphorylation reaction. Non-substrate components of the cell lysate are washed away and the amount of phosphorylation on the substrate is detected with an antibody specifically recognizing phosphotyrosine compared with control cells that were not contacted with a test compound. The cellular/biologic assays described herein measure the amount of DNA made in response to activation of a test kinase, which is a general measure of a proliferative response. The general procedure for this assay is as follows: a compound is introduced to cells expressing the test kinase, either naturally or recombinantly, for a selected period of time after which, if the test kinase is a receptor, a ligand known to activate the receptor is added. After incubation at least overnight, a DNA labeling reagent such as Bromodeoxyuridine (BrdU) or 3H-thymidine is added. The amount of labeled DNA is detected with either an anti-BrdU antibody or by measuring radioactivity and is compared to control cells not contacted with a test compound.
EGF-Induced Her2-Driven BrdU Incorporation
Protocol • (1) Cells-are seeded at 8000 cells/well in DMEM, 10% CS, 2mM Gln in a 96-well plate. Cells are incubated overnight at 37° C. in 5% CO2. • (2) After 24 hours, the cells are washed with PBS, and then are serum starved in serum free medium (0% CS DMEM with 0.1% BSA) for 24 hours. • (3) On day 3, ligand (EGF=2 nM, prepared in DMEM with 0.1% BSA) and test compounds are added to the cells simultaneously. The negative control wells receive serum free DMEM with 0.1% BSA only, the positive control cells receive the ligand (EGF) but no test compound. Test compounds are prepared in serum free DMEM with ligand in a 96 well plate, and serially diluted for 7 test concentrations. • (4) After 20 hours of ligand activation, diluted BrdU labeling reagent (1:100 in DMEM, 0.1% BSA) is added and the cells are incubated with BrdU (final concentration=10 μM) for 1.5 hours. • (5) After incubation with labeling reagent, the medium is removed by decanting and tapping the inverted plate on a paper towel. FixDenat solution is added (50 μl/well) and the plates are incubated at room temperature for 45 minutes on a plate shaker. • (6) The FixDenat solution is thoroughly removed by decanting and tapping the inverted plate on a paper towel. Milk is added (5% dehydrated milk in PBS, 200 μ/well) as a blocking solution and the plate is incubated for 30 minutes at room temperature on a plate shaker. • (7) The blocking solution is removed by decanting and the wells are washed once with PBS. Anti-BrdU-POD solution (1:100 dilution in PBS, 1% BSA) is added (100 μl/well) and the plate is incubated for 90 minutes at room temperature on a plate shaker. • (8) The antibody conjugate is thoroughly removed by decanting and rinsing the wells 5 times with PBS, and the plate is dried by inverting and tapping on a paper towel. • (9) TMB substrate solution is added (100 μl/well) and incubated for 20 minutes at room temperature on a plate shaker until color development is sufficient for photometric detection. • (10) The absorbance of the samples are measured at 410 nm (in “dual wavelength” mode with a filter reading at 490 nm, as a reference wavelength) on a Dynatech ELISA plate reader.
`COc1c(C(C)C)cc(/C=C2/C(=O)Nc3cc(O)ccc32)cc1C(C)C` [Example 4, 3-(3,5-Diisopropyl-4-methoxybenzylidene)-6-hydroxy-1,3-dihydroindol-2-one]: the IC50 (commonly the concentration that gives 50% inhibition) stood at 4.4 µM.
As for `COc1ccc(/C=C2/C(=O)Nc3ccc(F)cc32)cc1C1CCCC1` [Example 11, 3-(3-Cyclopentyl-4-methoxybenzylidene)-5-fluoro-1,3-dihydroindol-2-one], the figure is 9.3 µM; as for `COc1cc(/C=C2/C(=O)Nc3ccccc32)c(-c2ccc3ccccc3c2)cc1OC` [Example 62, 3-(4,5-Dimethoxy-2-naphthalen-2-ylbenzylidene)-1,3-dihydroindol-2-one], 28.8 µM.
With `CC1(C)CCc2cc(C=C3C(=O)Nc4ccc(Br)cc43)ccc2O1` (racemic) [Example 34, 5-Bromo-3-(2,2-dimethylchroman-6-ylmethylene)-1,3-dihydroindol-2-one], the IC50 is 3.5 µM.
In the case of `CCOc1cccc(-c2cc(C=C3C(=O)Nc4ccccc43)ccc2OC)c1` [Example 46, 3-(3′-Ethoxy-6-methoxybiphenyl-3-ylmethylene)-1,3-dihydroindol-2-one] it was 25.3 µM; in that of `COc1cc(C)c(C=C2C(=O)Nc3cc(NC(C)=O)ccc32)cc1C(C)C` [Example 27, N-[3-(5-Isopropyl-4-methoxy-2-methyl-benzylidene)-2-oxo-2,3-dihydro-1H-indol-6-yl]-acetamide], 23.4 µM; in that of `CC(C)c1cc(/C=C2/C(=O)Nc3ccc(Cl)cc32)cc(C(C)C)c1OCCN1CCOCC1` [Example 24, 5-chloro-3-[3,5-diisopropyl-4-(2-morpholin-4-ylethoxy)-benzylidene]-1,3-dihydroindol-2-one], 7.1 µM.
As for `COc1ccc(C=C2C(=O)Nc3ccccc32)cc1-c1cccc(NC(C)=O)c1` [Example 29, N-[2′-Methoxy-5′-(2-oxo-1,2-dihydroindol-3-ylidenemethyl)-biphenyl-3-yl]-acetamide], the figure is 8.1 µM.
As for `COc1cc(C)c(C=C2C(=O)Nc3ccccc32)cc1C(C)C` [Example 8, 3-(5-Isopropyl-4-methoxy-2-methylbenzylidene)-1,3-dihydroindol-2-one], the figure is 33.4 µM; as for `COc1cc(C)c(C=C2C(=O)Nc3ccc(Cl)cc32)cc1C(C)C` [Example 9, 5-Chloro-3-(5-isopropyl-4-methoxy-2-methylbenzylidene)-1,3-dihydroindol-2-one], 4.5 µM.
Regarding `CCOc1cccc(-c2cc(OC)c(OC)cc2/C=C2/C(=O)Nc3ccccc32)c1` [Example 58, 3-(3′-Ethoxy-4,5-dimethoxybiphenyl-2-ylmethylene)-1,3-dihydroindol-2-one], the IC50 amounted to 13.5 µM.
In the case of `COc1cc(C=C2C(=O)Nc3ccccc32)c(-c2ccccc2OC)cc1OC` [Example 49, 3-(4,5,2′-Trimethoxybiphenyl-2-ylmethylene)-1,3-dihydroindol-2-one] it was 9.1 µM; in that of `COc1ccc(/C=C2/C(=O)Nc3ccccc32)cc1C1CCCC1` [Example 10, 3-(3-Cyclopentyl-4-methoxybenzylidene)-1,3-dihydroindol-2-one], 14.1 µM; in that of `COc1c(C(C)C)cc(/C=C2/C(=O)Nc3ccc(C)cc32)cc1C(C)C` [Example 19, 3-(3,5-Diisopropyl-4-methoxybenzylidene)-5-methyl-1,3-dihydroindol-2-one], 3.3 µM.
As for `COc1cc(C)c(/C=C2/C(=O)Nc3ccc(F)cc32)cc1C(C)C` [Example 30, 5-Fluoro-3-(5-isopropyl-4-methoxy-2-methyl-benzylidene)-1,3-dihydroindol-2-one], the figure is 8.1 µM; as for `COc1ccc2c(c1)/C(=C\c1cc(C(C)C)c(OC)c(C(C)C)c1)C(=O)N2` [Example 17, 3-(3,5-Diisopropyl-4-methoxybenzylidene)-5-methoxy-1,3-dihydroindol-2-one], 5.5 µM.
As to `COc1cc(C)c(/C=C2/C(=O)Nc3ccc(Br)cc32)cc1C(C)C` [Example 36, 5-Bromo-3-(5-isopropyl-4-methoxy-2-methyl-benzylidene)-1,3-dihydroindol-2-one], the IC50 stood at 21.4 µM.
As for `COc1c(C(C)C)cc(/C=C2/C(=O)Nc3ccc(C(C)=O)cc32)cc1C(C)C` [Example 5, 5-Acetyl-3-(3,5-diisopropyl-4-methoxybenzylidene)-1,3dihydroindol-2-one], the figure is 10.5 µM; as for `COc1ccc(/C=C2/C(=O)Nc3ccccc32)cc1C1CCCCC1` [Example 12, 3-(3-Cyclohexyl-4-methoxybenzylidene)-1,3-dihydroindol-2-one], 31.9 µM; as for `CC1(C)CCc2cc(/C=C3/C(=O)Nc4ccc(Cl)cc43)ccc2O1` [Example 15, 5-Chloro-3-(2,2-dimethyl-chroman-6-ylmethylene)-1,3-dihydroindol-2-one], 4.4 µM.
In the case of `COc1c(C)cc(/C=C2/C(=O)Nc3ccc(Cl)cc32)cc1C` [Example 21, 5-Chloro-3-(4-methoxy-3,5-dimethylbenzylidene)-1,3-dihydroindol-2-one] it was 6.6 µM; in that of `COc1cccc(-c2cc(OC)c(OC)cc2/C=C2/C(=O)Nc3ccc(Cl)cc32)c1` [Example 61, 5-Chloro-3-(4,5-3′-Trimethoxybiphenyl-2-ylmethylene)-1,3-dihydroindol-2-one], above 50 µM; in that of `COc1ccc(/C=C2/C(=O)Nc3cc(NC(C)=O)ccc32)cc1-c1ccsc1` [Example 18, N-[3-(4-Methoxy-3-thiophene-3-ylbenzylidene)-2-oxo-2,3-dihydro-1H-indol-6-yl]-acetamide], above 50 µM.
In the case of `CC(=O)Nc1ccc2c(c1)NC(=O)/C2=C/c1ccc(OCCN2CCOCC2)c(C2CCCCC2)c1` [Example 16, N-{3-[3-Cyclohexyl-4-(2-morpholin-4-ylethoxy)-benzylidene]-2-oxo-2,3-dihydro-1H-indol-6-yl}-acetamide] it was 4.2 µM; in that of `COc1c(C(C)C)cc(/C=C2/C(=O)Nc3ccc(N)cc32)cc1C(C)C` [Example 20, 5-Amino-3-(3,5-diisopropyl-4-methoxy-benzylidene)-1,3-dihydroindol-2-one], 15.7 µM; in that of `COC(=O)c1ccc2c(c1)/C(=C\c1cc(C(C)C)c(OC)c(C(C)C)c1)C(=O)N2` [Example 6, 3-(3,5-Diisopropyl-4-methoxybenzylidene)-2-oxo-2,3-dihydro-1H-indole-5-carboxylic acid methyl ester], 4.7 µM.
On to `CC(C)c1cc(/C=C2/C(=O)Nc3ccc(Br)cc32)cc(C(C)C)c1OCCN1CCOCC1` [Example 57, 5-Bromo-3-[3,5-diisopropyl-4-(2-morpholin-4-ylethoxy)benzylidene]-1,3-dihydroindol-2-one], for which the IC50 is 9.6 µM.
`COc1ccc(/C=C2/C(=O)Nc3ccc(Cl)cc32)cc1-c1cccnc1` [Example 60]: the IC50 came to 40 µM.
As for `COc1ccc(/C=C2/C(=O)Nc3ccc(CCN4CCOCC4)cc32)cc1-c1ccsc1` [Example 26, 3-(4-Methoxy-3-thiophen-3-ylbenzylidene)-5-(2-morpholin-4-yl-ethyl)-1,3-dihydroindol-2-one], the IC50 is above 50 µM.
As for `COc1ccc(/C=C2/C(=O)Nc3ccccc32)cc1-c1ccsc1` [Example 35, 3-(4-Methoxy-3-thiophen-3-ylbenzylidene)-1,3-dihydroindol-2-one], the figure is 13.8 µM; as for `COc1ccc(C=C2C(=O)Nc3cc(NC(C)=O)ccc32)cc1-c1cccc(NC(C)=O)c1` (mixture of isomers) [Example 63, N-[3-(3′-Acetylamino-6-methoxybiphenyl-3-ylmethylene)-2-oxo-2,3-dihydro-1H-indol-6-yl]-acetamide], 20.4 µM.
